Laboratory results taken from US11053204B2, “Pyrimidinyloxy benzene derivatives as herbicides” (FMC Corporation, priority 2015, dated 2021).

Columns and labels:
Format in all cases: in vivo
[1] = test system: Italian ryegrass (Lolium multiflorum); experiment: Test A preemergence, visual injury rating
Outline: (§1)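 Injury scores run from 0, no effect, to 100, complete control, judged by eye against untreated plants roughly 10 days after treatment. Chemicals carried a surfactant in a non-phytotoxic solvent and went onto loam–sand soil preemergence or onto one- to two-leaf seedlings postemergence.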

[2] = test system: barnyardgrass (Echinochloa crus-galli); experiment: Test A preemergence, visual injury rating
Outline: as §1

[3] = test system: giant foxtail (Setaria faberii); experiment: Test A preemergence, visual injury rating
Outline: as §1

[4] = test system: kochia (Kochia scoparia); experiment: Test A preemergence, visual injury rating
Outline: as §1

[5] = test system: pigweed (Amaranthus retroflexus); experiment: Test A preemergence, visual injury rating
Outline: as §1

[6] = test system: ragweed (common ragweed, Ambrosia elatior); experiment: Test A preemergence, visual injury rating
Outline: as §1

[7] = test system: Italian ryegrass (Lolium multiflorum); experiment: Test A postemergence, visual injury rating; details: 0 to 100 scale, 0 is no effect, 100 is complete control, approximately 10 days
Outline: as §1

[8] = test system: barnyardgrass (Echinochloa crus-galli); experiment: Test A postemergence, visual injury rating; details: 0 to 100 scale, 0 is no effect, 100 is complete control, approximately 10 days
Outline: as §1

[9] = test system: blackgrass (Alopecurus myosuroides); experiment: Test A postemergence, visual injury rating; details: 0 to 100 scale, 0 is no effect, 100 is complete control, approximately 10 days
Outline: as §1

[10] = test system: corn (Zea mays); experiment: Test A postemergence, visual injury rating; details: 0 to 100 scale, 0 is no effect, 100 is complete control, approximately 10 days
Outline: as §1

[11] = test system: galium (catchweed bedstraw, Galium aparine); experiment: Test A postemergence, visual injury rating; details: 0 to 100 scale, 0 is no effect, 100 is complete control, approximately 10 days
Outline: as §1

[12] = test system: giant foxtail (Setaria faberii); experiment: Test A postemergence, visual injury rating; details: 0 to 100 scale, 0 is no effect, 100 is complete control, approximately 10 days
Outline: as §1

[13] = test system: kochia (Kochia scoparia); experiment: Test A postemergence, visual injury rating; details: 0 to 100 scale, 0 is no effect, 100 is complete control, approximately 10 days
Outline: as §1

[14] = test system: pigweed (Amaranthus retroflexus); experiment: Test A postemergence, visual injury rating; details: 0 to 100 scale, 0 is no effect, 100 is complete control, approximately 10 days
Outline: as §1

[15] = test system: ragweed (common ragweed, Ambrosia elatior); experiment: Test A postemergence, visual injury rating; details: 0 to 100 scale, 0 is no effect, 100 is complete control, approximately 10 days
Outline: as §1

[16] = test system: wheat (Triticum aestivum); experiment: Test A postemergence, visual injury rating; details: 0 to 100 scale, 0 is no effect, 100 is complete control, approximately 10 days
Outline: as §1

[17] = test system: barnyardgrass (Echinochloa crus-galli); experiment: Test B flooded paddy test, plant response rating; details: 250 g ai/ha; Flood; scale of 0 to 100 where 0 is no effect and 100 is complete control; 13 to 15 days
Outline: (§2)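 Test compounds are applied straight into paddy water held 3 cm above the soil surface, with that flood maintained for the whole test. After 13 to 15 days in the greenhouse, each species is scored visually relative to controls.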

[18] = test system: ducksalad (Heteranthera limosa); experiment: Test B flooded paddy test, plant response rating; details: 250 g ai/ha; Flood; scale of 0 to 100 where 0 is no effect and 100 is complete control; 13 to 15 days
Outline: as §2

[19] = test system: rice (Oryza sativa); experiment: Test B flooded paddy test, plant response rating; details: 250 g ai/ha; Flood; scale of 0 to 100 where 0 is no effect and 100 is complete control; 13 to 15 days
Outline: as §2

[20] = test system: sedge, umbrella (small-flower umbrella sedge, Cyperus difformis); experiment: Test B flooded paddy test, plant response rating; details: 250 g ai/ha; Flood; scale of 0 to 100 where 0 is no effect and 100 is complete control; 13 to 15 days
Outline: as §2

[21] = 31 g ai/ha, 0 to 100 scale, 0 no effect, 100 complete control
[22] = 125 g ai/ha, 0 to 100 scale (0 no effect, 100 complete control)

| Compound | Plant response rating, Ryegrass, Italian [1, 21] | Plant response rating, Ryegrass, Italian [1, 22] | Plant response rating, Barnyardgrass [2, 21] | Plant response rating, Foxtail, Giant [3, 21] | Plant response rating, Foxtail, Giant [3, 22] | Plant response rating, Kochia [4, 21] | Plant response rating, Kochia [4, 22] | Plant response rating, Pigweed [5, 21] | Plant response rating, Pigweed [5, 22] | Plant response rating, Ragweed [6, 21] | Plant response rating, Ragweed [6, 22] | Ryegrass, Italian plant response rating ([7]; 31 g ai/ha) | Ryegrass, Italian plant response rating ([7]; 125 g ai/ha) | Barnyardgrass plant response rating ([8]; 31 g ai/ha) | Barnyardgrass plant response rating ([8]; 125 g ai/ha) | Blackgrass plant response rating ([9]; 31 g ai/ha) | Blackgrass plant response rating ([9]; 125 g ai/ha) | Corn plant response rating ([10]; 31 g ai/ha) | Corn plant response rating ([10]; 125 g ai/ha) | Galium plant response rating ([11]; 31 g ai/ha) | also measured |
| --- | --- | --- | --- | --- | --- | --- | --- | --- | --- | --- | --- | --- | --- | --- | --- | --- | --- | --- | --- | --- | --- |
| C#CCOC(=O)c1c(Br)cccc1Oc1ncc(Cl)cn1 [Compound 108] | 0 | 0 | 10 | 10 | 80 | 0 | 10 | 0 | 70 | 0 | 0 | 0 | 0 | 0 | 10 | 0 | 0 | 10 | 20 | 20 | Barnyardgrass plant response rating [2, 22]: 30; Galium plant response rating ([11]; 125 g ai/ha): 40; Foxtail, Giant plant response rating ([12]; 31 g ai/ha): 0; Foxtail, Giant plant response rating ([12]; 125 g ai/ha): 10; Kochia plant response rating ([13]; 31 g ai/ha): 20; Kochia plant response rating ([13]; 125 g ai/ha): 40; Pigweed plant response rating ([14]; 31 g ai/ha): 20; Pigweed plant response rating ([14]; 125 g ai/ha): 50; Ragweed plant response rating ([15]; 31 g ai/ha): 0; Ragweed plant response rating ([15]; 125 g ai/ha): 0; Wheat plant response rating ([16]; 31 g ai/ha): 0; Wheat plant response rating ([16]; 125 g ai/ha): 0; Plant response rating, Barnyardgrass [17]: 0; Plant response rating, Ducksalad [18]: 80; Plant response rating, Rice [19]: 0; Plant response rating, Sedge, Umbrella [20]: 60 |
| N#Cc1cccc(Oc2ncc(Cl)cn2)c1C(=O)CCCCC(F)(F)F [Compound 109] | 0 | 0 | 0 | 0 | 40 | 0 | 0 | 0 | 60 | 0 | 0 | 0 | 0 | 0 | 0 | 0 | 0 | 10 | 20 | 0 | Barnyardgrass plant response rating [2, 22]: 20; Galium plant response rating ([11]; 125 g ai/ha): 30; Foxtail, Giant plant response rating ([12]; 31 g ai/ha): 0; Foxtail, Giant plant response rating ([12]; 125 g ai/ha): 0; Kochia plant response rating ([13]; 31 g ai/ha): 0; Kochia plant response rating ([13]; 125 g ai/ha): 20; Pigweed plant response rating ([14]; 31 g ai/ha): 20; Pigweed plant response rating ([14]; 125 g ai/ha): 60; Ragweed plant response rating ([15]; 31 g ai/ha): 0; Ragweed plant response rating ([15]; 125 g ai/ha): 20; Wheat plant response rating ([16]; 31 g ai/ha): 0; Wheat plant response rating ([16]; 125 g ai/ha): 0; Plant response rating, Barnyardgrass [17]: 0; Plant response rating, Ducksalad [18]: 0; Plant response rating, Rice [19]: 0; Plant response rating, Sedge, Umbrella [20]: 0 |
| N#Cc1cccc(Oc2ncc(Cl)cn2)c1C(=O)CCC(F)(F)C(F)(F)F [Compound 111] | 0 | 0 | 0 | 0 | 0 | 0 | 0 | 0 | 0 | 0 | 0 | 0 | 0 | 0 | 0 | 0 | 0 | 0 | 0 | 0 | Plant response rating, Barnyardgrass [2, 22]: 0; Galium plant response rating ([11]; 125 g ai/ha): 0; Foxtail, Giant plant response rating ([12]; 31 g ai/ha): 0; Foxtail, Giant plant response rating ([12]; 125 g ai/ha): 0; Kochia plant response rating ([13]; 31 g ai/ha): 0; Kochia plant response rating ([13]; 125 g ai/ha): 0; Pigweed plant response rating ([14]; 31 g ai/ha): 0; Pigweed plant response rating ([14]; 125 g ai/ha): 0; Ragweed plant response rating ([15]; 31 g ai/ha): 0; Ragweed plant response rating ([15]; 125 g ai/ha): 0; Wheat plant response rating ([16]; 31 g ai/ha): 0; Wheat plant response rating ([16]; 125 g ai/ha): 0; Plant response rating, Barnyardgrass [17]: 0; Plant response rating, Ducksalad [18]: 0; Plant response rating, Rice [19]: 0; Plant response rating, Sedge, Umbrella [20]: 0 |
| COc1cccc(Oc2ncc(Cl)cn2)c1C(=O)OCCC(F)(F)F [Compound 112] | 10 | 0 | 0 | 0 | 70 | 0 | 50 | 60 | 100 | 0 | 0 | 0 | 0 | 0 | 10 | 0 | 30 | 0 | 0 | 60 | Plant response rating, Barnyardgrass [2, 22]: 80; Galium plant response rating ([11]; 125 g ai/ha): 80; Foxtail, Giant plant response rating ([12]; 31 g ai/ha): 0; Foxtail, Giant plant response rating ([12]; 125 g ai/ha): 30; Kochia plant response rating ([13]; 31 g ai/ha): 0; Kochia plant response rating ([13]; 125 g ai/ha): 30; Pigweed plant response rating ([14]; 31 g ai/ha): 40; Pigweed plant response rating ([14]; 125 g ai/ha): 70; Ragweed plant response rating ([15]; 31 g ai/ha): 20; Ragweed plant response rating ([15]; 125 g ai/ha): 40; Wheat plant response rating ([16]; 31 g ai/ha): 0; Wheat plant response rating ([16]; 125 g ai/ha): 0; Plant response rating, Barnyardgrass [17]: 20; Plant response rating, Ducksalad [18]: 100; Plant response rating, Rice [19]: 40; Plant response rating, Sedge, Umbrella [20]: 100 |
| O=C(OCCC(F)(F)F)c1c(Oc2ncc(Cl)cn2)cccc1C(F)(F)F [Compound 113] | 10 | 40 | 0 | 60 | 100 | 10 | 60 | 100 | 100 | 0 | 0 | 0 | 30 | 10 | 40 | 0 | 40 | 10 | 20 | 40 | Plant response rating, Barnyardgrass [2, 22]: 90; Galium plant response rating ([11]; 125 g ai/ha): 80; Foxtail, Giant plant response rating ([12]; 31 g ai/ha): 10; Foxtail, Giant plant response rating ([12]; 125 g ai/ha): 50; Kochia plant response rating ([13]; 31 g ai/ha): 80; Kochia plant response rating ([13]; 125 g ai/ha): 100; Pigweed plant response rating ([14]; 31 g ai/ha): 90; Pigweed plant response rating ([14]; 125 g ai/ha): 100; Ragweed plant response rating ([15]; 31 g ai/ha): 0; Ragweed plant response rating ([15]; 125 g ai/ha): 20; Wheat plant response rating ([16]; 31 g ai/ha): 0; Wheat plant response rating ([16]; 125 g ai/ha): 20; Plant response rating, Barnyardgrass [17]: 65; Plant response rating, Ducksalad [18]: 80; Plant response rating, Rice [19]: 20; Plant response rating, Sedge, Umbrella [20]: 90 |
